Test results as given in patent US20100291596A1, “SCREENING METHOD FOR AGENTS SUITABLE FOR THERAPY OF ALZHEIMER'S DISEASE” (FREIE UNIVERSITAT BERLIN, priority 2007, published 2010).
Entries after “also recorded” stand apart in the source; their conditions may differ.

How the values were obtained:
SH-SY5Y cells = assay: MTS assay of viable SH-SY5Y cells for determination of cytotoxicity; format: cell-based, human; conditions: 24 h
Protocol: SH-SY5Y cells expressing SPA4CT wt were spread at a density of 30.000 cells per 96-well. The cell culture media (OptiMEM, Invitrogen or serum containing medium, Biochrom) were supplemented with NSAIDs in varying concentrations as well as positive controls (without treatment or vehicle control) and negative controls (0.01% to 0.5% Triton X-100). Each well was incubated with 100 μl of supplemented media for 24 h. Then, 20 μl of the MTS stain solution (Promega, cell viability assay) was added and after 2-4 h incubation time the absorbance at 562 nm was measured.
(§1) (ii) Initially, the cytotoxicity of the compounds in cultures of neuronal cells is determined using a cell proliferation assay or an assay based on viable cells (FIG. 2). Then, APP-CTF, APP or APPsw (APPsw: APP with the familial AD mutation “swedish” (K670N M671L); APP-CTF: APP-C-terminal fragment; CTF: after alpha- or beta-secretase cleavage) expressing cells are incubated with the drug candidate (two different concentrations, 96 well plate format). After incubation for 6 to 24 h the amount of Abeta42 secreted from the cell culture medium is determined using ELISA (see, for further experimental details and results FIG. 3 and the figure legend). Drug candidates causing a reduction of the amount of Abeta42 are assayed in a further step comprising ELISA and MALDI-MS. First, the amounts of Abeta40 and Abeta38 (as well as additional possible Abeta species) are quantified by use of ELISA. Then, the entire spectrum of secreted Abeta species is assayed using immunoprecipitation and MALDI-MS analysis (see, for further experimental details and results FIG. 4 and the figure legend). Compounds leading to reduced amounts of Abeta42 and increased amounts of shorter Abeta species are selected and assayed in a further screening step.

gamma-secretase [1] = target: T1, gamma-secretase (Homo sapiens, UniProt P49768); assay: Confocal laser scanning microscopy of subcellular distribution of APP-CTF-YFP in HEK293 cells expressing SPA4CT-YFP; format: cell-based; conditions: 6 h
T1 construct: HEK293 expressing SPA4CT-YFP were spread into a 96-well dish and were treated with NSAIDs or controls for 6 h; endogenous in cells; host or cells: HEK293 (ATCC CRL-1573)
Protocol: HEK293 cells were transiently transfected with SPA4CT-YFP. After 24 h, cells were treated with varying concentrations (indicated in the figures) of different NSAIDs, gamma-secretase inhibitor N-[N-(3,5-difluorophenacetyl-L-alanyl)]-S-phenylglycine t-butyl ester (DAPT) or vehicle control for 6 h. The subcellular distribution of APP-CTF-YFP within living cells was analyzed by confocal laser scanning microscopy (LSM).
(i) Cells expressing a fusion protein comprising the substrate of gamma-secretase (APP-CTF) and a fluorescent protein (fp) are incubated with the drug candidate in a 96 well plate. Prior to addition to the cells, the drug is dissolved in EtOH or DMSO. Controls are (1) untreated culture medium, (2) culture medium containing EtOH or DMSO, and (3) culture medium with known inhibitors of gamma-secretase. After incubation for 6 h to 24 hours the fluorescence is determined. If gamma-secretase is active, the fusion protein is degraded and the fluorescent protein spreads in the cell, e.g., the cell cytoplasm. As a consequence, intensive fluorescence is not detectable. If the gamma-secretase is inhibited, the substrate of gamma-secretase accumulates at the plasma membrane resulting in an intensive (and traceable) fluorescence (see, for further experimental details and results FIGS. 1 and 1.II and the figure legend). […]

gamma-secretase [2] = target: T1, gamma-secretase; assay: Quantification of gamma-secretase inhibition: average YFP fluorescence of HEK293 cells expressing APP-CTF-YFP; format: cell-based; conditions: 6 h
Protocol: To quantify the effects of NSAIDs on gamma-secretase activity, HEK293 expressing SPA4CT-YFP were spread into a 96-well dish and were treated with NSAIDs or controls for 6 h. Intensity of YFP fluorescence was quantified with adjusted filters in a 96-well fluorescence reader (company BertholdTech, Mithras). (i) Cells expressing a fusion protein comprising the substrate of gamma-secretase (APP-CTF) and a fluorescent protein (fp) are incubated with the drug candidate in a 96 well plate. Prior to addition to the cells, the drug is dissolved in EtOH or DMSO. Controls are (1) untreated culture medium, (2) culture medium containing EtOH or DMSO, and (3) culture medium with known inhibitors of gamma-secretase. After incubation for 6 h to 24 hours the fluorescence is determined. If gamma-secretase is active, the fusion protein is degraded and the fluorescent protein spreads in the cell, e.g., the cell cytoplasm. As a consequence, intensive fluorescence is not detectable. If the gamma-secretase is inhibited, the substrate of gamma-secretase accumulates at the plasma membrane resulting in an intensive (and traceable) fluorescence (see, for further experimental details and results FIGS. 1 and 1.II and the figure legend). Drug candidates which inhibit the biological activity (i.e. cleavage of the substrate) of gamma-secretase are discarded.

[3] = target: T2, transmembrane sequence Abeta29-42 wt (Homo sapiens, UniProt P05067); assay: ToxR system: dimerization of transmembrane sequence Abeta29-42 wt; format: cell-based
T2 construct: the amino acid residues 29-42 of the Abeta region ([…]); expressed in transfected cells; host or cells: E. coli FHK12
Protocol: ToxR-system E. coli FHK12 cells were transformed with accordant DNA constructs encoding for ToxR-fusionproteins containing at least a part of the APP transmembrane sequence (e.g. sequence Abeta 29-42). Cells were grown in either FHK medium or minimal medium (e.g. M9 medium) supplemented with NSAIDs and corresponding vehicle controls for 6 h. Then, aliquots of the cells were lysed and beta-galactosidase activity was measured (Langosch et al., 1996).
The second screening step is carried out in order to find compounds selectively modulating only the processing of APP via binding to the transmembrane sequence (TMS) of APP. The APP-GxxxG motif is, inter alia, a perfect target structure for selecting compounds characterized by high affinity binding (Munter et al., EMBO J. 26 (2007), 1702-12). In the bacterial assay system (ToxR system) only the transmembrane sequence of APP containing the amino acid residues 29-42 of the Abeta region (GAIIGLMVGGVVIA) is expressed as part of a fusion protein. […] The rate of transcription correlates with the degree of dimerization and can be determined by measuring the conversion of a coloured substrate. […] After incubation for 2 to 24 h the degree of dimerization is determined. Binding of compounds to the amino acid sequence Abeta 29-42 results in weakening of dimerization and this is determined by measuring the decrease of enzymatic activity. […]

[4] = test system: Abeta species secreted from SH-SY5Y cells which stably express wild type APP; assay: ELISA quantification of Abeta species secreted from SH-SY5Y cells stably expressing wild type APP; format: cell-based, human; conditions: APP wt, 6 h
Protocol: (§2) Quantification of Abeta 42, Abeta 40 and Abeta38 with ELISA Stably transfected cells were plated at a density of 2.8×10^5 cells per 12-well. The day after splitting, 200 μl of fresh media supplemented with NSAIDs or control vehicles were added and incubated for 6 h. For Abeta40 and Abeta42-specific ELISAs, 50 μl of media were analyzed according to the manufacturer's instruction (The Genetics company (TGC), Basel, Switzerland). The same protocol was applied to determine Abeta38 levels, except that the antibody BAP-29 (provided by M. Brockhaus, Roche, Basel, Switzerland) was used.
as §1

[5] = test system: Abeta species from APP G33A-transfected cells; assay: ELISA quantification of Abeta species secreted from APP G33A-transfected cells; format: cell-based
Protocol: as §2
The effect of the drugs on the dimerization motif GxxxG of TMS of APP is assayed. Drug candidates were added to the cell culture medium containing APP-CTF, APP or APPsw expressing neuronal cells or cells containing the APP-processing machinery as described in Example 2. In addition, cell lines were assayed expressing altered APP molecules characterized by a mutated GxxxG motif. Binding of the compounds to the APP GxxxG motif results in an altered processing only of the wild type proteins, but not the altered GxxxG motif of mutants (see, for further experimental details and results FIG. 5 and the figure legend).
Detection and characterization of the binding of the drug candidate to the GxxxG motif. Binding of the compounds to Abeta42 is verified by use of BIACORE and the KD-value is determined. Binding of the compounds to the GAIIG motif should lead to lack of binding to corresponding Abeta42-fragments or GxxxG mutant peptides. Similarly, using ELISA with synthetical peptides binding of NSAIDs can be determined via a competition assay (see, for further experimental details and results FIG. 6 and the figure legend).

CC(C)OC(=O)C(C)(C)Oc1ccc(C(=O)c2ccc(Cl)cc2)cc1 [Fenofibrate]
Concentration at which compound is no longer toxic (MTS assay) (SH-SY5Y cells): 5 µM

C[C@H](NC(=O)Cc1cc(F)cc(F)c1)C(=O)N[C@H](C(=O)OC(C)(C)C)c1ccccc1 [DAPT, N-[N-(3,5-difluorophenacetyl-L-alanyl)]-S-phenylglycine t-butyl ester]
Localization of APP-CTF-YFP (confocal images) (gamma-secretase [1]; 1 μM added to cell culture medium): APP-CTF preferably accumulates at the plasma membrane | Average fluorescence compared to the DMSO control (gamma-secretase [2]; 1 μM): increased fluorescence

CC(C)Cc1ccc(C(C)C(=O)O)cc1 (stereo not shown) [Ibuprofen]
Average fluorescence compared to the DMSO control (gamma-secretase [2]; 50 μM): slight increase of fluorescence | Concentration at which compound is no longer toxic (MTS assay) (SH-SY5Y cells): 250 µM | Stability of dimerization of the transmembrane sequence [3]: weakens the strength of dimerization

CSc1ccc(/C=C2/C(C)=C(CC(=O)O)c3cc(F)ccc32)cc1 [sulindac sulfide]
Localization of APP-CTF-YFP (confocal images) (gamma-secretase [1]; 30 μM): APP-CTF preferably accumulates at the ER/nuclear membrane | Average fluorescence compared to the DMSO control (gamma-secretase [2]; 50 μM): slight increase of fluorescence | Concentration at which compound is no longer toxic (MTS assay) (SH-SY5Y cells): 150 µM | Secreted amount of Abeta38 [4]: low and does not substantially reduce | Secreted amount of Abeta40 [4]: low and does not substantially reduce | Secreted amount of Abeta42 [4]: decreases in a concentration dependent manner; also recorded: reduces | Secreted amount of Abeta38 [5]: does not substantially reduce | Secreted amount of Abeta40 [5]: does not substantially reduce | Secreted amount of Abeta42 [5]: no impact | Stability of dimerization of the transmembrane sequence [3]: weakens the stability of dimerization of the transmembrane sequence of Abeta29-42 in a concentration dependent manner
